Source: patent US20090105136A1, “NPY Y2 Agonist for Use as Therapeutic Agent for Disease Accompanied by Diarrhea” (priority 2005, published 2009)

Test system: mice (C57BL/6)
Assay: Motility of stomach and small intestine (charcoal transit, GI motility)
Format: in vivo
Conditions: 0.3 mg/kg or 3 mg/kg intraperitoneal; 30 minutes after oral charcoal; vs vehicle control mice; FIG. 1
Protocol: At the same time, control mice (vehicle) to which only a vehicle was administered were prepared, and the same test was carried out using these mice. The motility of stomach and small intestine was measured as follows. That is, charcoal powder was suspended in a 0.5% methyl cellulose solution and the resulting suspension was orally administered to the mice. After 30 minutes, the distance that the charcoal entering into the stomach traveled in the intestinal tract was measured by dissection. At the same time, the total length of the small intestine from the pyloric portion of stomach to the beginning of the cecum was also measured, and the ratio (%) of the distance that the charcoal traveled to the total length of the small intestine was plotted in a graph as a GI (gastrointestinal) motility.

neuropeptide Y [NPY] was tested, and the “GI (gastrointestinal) motility: ratio of distance the charcoal traveled to total length of small intestine” value was “lower than that of the control mice”.
